Test results as given in patent US8445636B2, “Antimicrobial and anticancer lipopeptides” (Yeda Research & Development Co. Ltd., priority 2003, dated 2013).
In brackets after ≈: the same amount, converted by molar mass. Where two headings read alike, the source gives them in different places. Non-standard residues stand in square brackets, D forms with d. Residues, ends and D or L forms follow the SMILES beside them. *: point of attachment. Palmitoyl = CCCCCCCCCCCCCCCC(=O)*; Undecanoyl = CCCCCCCCCCC(=O)*

Columns and labels:
Assay type in all cases: cell-based
[1] = system: Aspergillus flavus ATCC 9643
[2] = system: Aspergillus niger ATCC 9642
Method: The antifungal activity of the lipopeptides was examined in sterile 96-well plates (Nunc F96 microtiter plates) in a final volume of 200 μL as follows: 100 µl of a suspension containing fungi at a concentration of 1×10^4 Colony-Forming Units (CFU)/ml in culture medium (RPMI 1640, 0.165 M MOPS with L-glutamine, without NaHCO3) at pH 7.4 or pH 5.5 (adjustment of the pH was done by diluted solutions of HCl and NaOH) were added to 100 μl of water containing the peptide in serial 2-fold dilutions in water. The fungi were incubated in the presence of the lipopeptides for 24-48 h at 35° C. in a Binder KB115 incubator under agitation. Growth inhibition was determined by measuring the absorbance at 620 nm with a Microplate autoreader E1309 (Bio-Tek Instruments). Antifungal activity is expressed as the minimal inhibitory concentration (MIC), the concentration at which 100% inhibition of fungi growth was observed after the incubation time mentioned above. The fungi used were: Aspergillus niger ATCC 9642, Candida albicans ATCC 10231 and Cryptococcus neoformans ATCC 66031. If not indicated otherwise, the fungi growth was detected at pH 7.4.

[3] = system: Pseudomonas aeruginosa ATCC 27853
How it was run: (§1)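 Broth microdilution: bacteria at 1×10^6 CFU/ml in LB medium (pH 7.4 unless stated; pH 5.5 also tested) mixed 1:1 with 2-fold serial lipopeptide dilutions in water, 18-20 h at 37° C. Growth read at 600 nm; MIC taken as lowest concentration giving 100% growth inhibition.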

[4] = system: Staphylococcus aureus ATCC 6538P
How it was run: as §1

[5] = system: Acinetobacter baumannii ATCC 19606
How it was run: as §1

[6] = system: Escherichia coli ATCC 25922
How it was run: as §1

[7] = system: Candida albicans ATCC 10231; test: microbe, parasite or virus in culture; settings: for MIC: read-out: Minimal Inhibitory Concentration, Candida Albicans (ATCC 10231)
How it was run: (§2)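 Broth microdilution in RPMI 1640/0.165 M MOPS, 1×10^4 CFU/ml inoculum, 2-fold serial lipopeptide dilutions in water, pH 7.4 unless stated (pH 5.5 alternative). Incubated 24–48 h at 35 °C with agitation; growth read at A620. MIC = lowest concentration giving 100% growth inhibition.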

[8] = system: Aspergillus fumigatus ATCC 26430; test: microbe, parasite or virus in culture
B. subtilis ATCC 6051 = system: B. subtilis ATCC 6051
[9] = system: Cryptococcus neoformans ATCC MYA-422; test: microbe, parasite or virus in culture; settings: for MIC: Table 17, D-magainin analog, mean of 3 experiments, standard deviation of 25%, read-out: Minimal Inhibitory Concentration, Cyrptococcus neoformans (ATCC MYA-422)
[10] = system: human red blood cells (hRBC); test: Hemolytic activity, release of hemoglobin at 540 nm; settings: for % of Hemolytic activity at maximal MIC: human
Method: Fresh human red blood cells (hRBC) with EDTA were rinsed 3 times with PBS (35 mM phosphate buffer/0.15 M NaCl, pH 7.3) by centrifugation for 10 min at 800 g and resuspended in PBS. Peptides dissolved in PBS were then added to 50 μl of a solution of the stock hRBC in PBS to reach a final volume of 100 μl (final erythrocyte concentration, 4% v/v). The resulting suspension was incubated under agitation for 60 min at 37° C. The samples were then centrifuged at 800×g for 10 min. Release of hemoglobin was monitored by measuring the absorbance of the supernatant at 540 nm. Controls for zero hemolysis (blank) and 100% hemolysis consisted of hRBC suspended in PBS and Triton 1%, respectively.

[11] = system: Enterococcus faecalis ATCC 29212; settings: Table 4; pH 7.4
How it was run: as §1

[12] = system: Enterobacter cloacae ATCC 49141; settings: Table 4; pH 7.4
How it was run: as §1

[13] = system: Cryptococcus neoformans ATCC 66031; test: microbe, parasite or virus in culture; settings: Table 10; pH 7.4
How it was run: as §2

[14] = Table 14, lipopeptides vs parent peptides, pH 7.4
[15] = Table 8, lipopeptides vs parent peptides, pH 7.4

C[C@H](NC(=O)[C@H](C)NC(=O)[C@H](CCCCN)NC(=O)[C@@H](C)NC(=O)[C@@H](C)NC(=O)[C@H](C)NC(=O)[C@@H](N)CCCCN)C(=O)N[C@H](C)C(=O)N[C@@H](CCCCN)C(=O)N[C@H](C)C(=O)N[C@@H](C)C(=O)N[C@@H](CCCCN)C(N)=O [DK4A8, reference compound] (H-KA[dA][dA]KAA[dA]K[dA]AK-NH2; N-terminus assumed)
Minimal Inhibitory Concentration, Aspergillus flavus (ATCC 9643) [1, 14]: >100 µM
Minimal Inhibitory Concentration, Aspergillus niger (ATCC 9642) [2, 14]: >100 µM
Minimal Inhibitory Concentration, P. aeruginosa ATCC 27853 [3, 15]: >100 µM
Minimal Inhibitory Concentration, S. aureus ATCC 6538P [4, 15]: >100 µM
Minimal Inhibitory Concentration, A. baumannii ATCC 19606 [5, 15]: >100 µM
Minimal Inhibitory Concentration, E. coli (ATCC 25922) [6, 15]: >100 µM
MIC [7, 14]: >100 µM
Minimal Inhibitory Concentration, Aspergillus fumigatus (ATCC 26430) [8, 14]: >100 µM
Minimal Inhibitory Concentration, B. subtilis (ATCC 6051) (B. subtilis ATCC 6051; [15]): >100 µM
Minimal Inhibitory Concentration, Cryptococcus neoformans (ATCC MYA-422) [9, 14]: >100 µM

NCCCC[C@@H](N)C(=O)NCC(=O)NCC(=O)NCC(=O)N[C@H](CCCCN)C(=O)NCC(=O)NCC(=O)NCC(=O)N[C@H](CCCCN)C(=O)NCC(=O)NCC(=O)N[C@H](CCCCN)C(N)=O [DK4G8, reference compound] (H-[dK]GGG[dK]GGG[dK]GG[dK]-NH2; N-terminus assumed)
Minimal Inhibitory Concentration, Aspergillus flavus (ATCC 9643) ([1]; ATCC 9643, pH 7.4): >100 µM
Minimal Inhibitory Concentration, Aspergillus niger (ATCC 9642) ([2]; ATCC 9642, pH 7.4): >100 µM
Minimal Inhibitory Concentration, P. aeruginosa ATCC 27853 ([3]; ATCC 27853, pH 7.4): >100 µM
Minimal Inhibitory Concentration, S. aureus ATCC 6538P ([4]; ATCC 6538, pH 7.4): >100 µM
Minimal Inhibitory Concentration, A. baumannii ATCC 19606 ([5]; ATCC 19606, pH 7.4): >100 µM
Minimal Inhibitory Concentration, E. coli (ATCC 25922) ([6]; ATCC 25922, pH 7.4): >100 µM
MIC ([7]; ATCC 10231, pH 7.4): >100 µM
Minimal Inhibitory Concentration, Aspergillus fumigatus (ATCC 26430) ([8]; ATCC 26430, pH 7.4): >100 µM
Minimal Inhibitory Concentration, B. subtilis (ATCC 6051) (B. subtilis ATCC 6051; ATCC 6051, pH 7.4): >100 µM
Minimal Inhibitory Concentration, Cryptococcus neoformans (ATCC MYA-422) ([9]; ATCC MYA-422, pH 7.4): >100 µM

CC(C)[C@H](NC(=O)[C@H](CCCCN)NC(=O)[C@H](NC(=O)[C@H](NC(=O)[C@@H](NC(=O)[C@@H](N)CCCCN)C(C)C)C(C)C)C(C)C)C(=O)N[C@H](C(=O)N[C@@H](C(=O)N[C@@H](CCCCN)C(=O)N[C@@H](C(=O)N[C@H](C(=O)N[C@@H](CCCCN)C(N)=O)C(C)C)C(C)C)C(C)C)C(C)C [DK4V8, reference compound] (H-KV[dV][dV]KVV[dV]K[dV]VK-NH2; N-terminus assumed)
Minimal Inhibitory Concentration, Aspergillus flavus (ATCC 9643) ([1]; ATCC 9643, pH 7.4): >100 µM
Minimal Inhibitory Concentration, Aspergillus niger (ATCC 9642) ([2]; ATCC 9642, pH 7.4): >100 µM
Minimal Inhibitory Concentration, P. aeruginosa ATCC 27853 ([3]; ATCC 27853, pH 7.4): >100 µM
Minimal Inhibitory Concentration, S. aureus ATCC 6538P ([4]; ATCC 6538, pH 7.4): >100 µM
Minimal Inhibitory Concentration, A. baumannii ATCC 19606 ([5]; ATCC 19606, pH 7.4): >100 µM
Minimal Inhibitory Concentration, E. coli (ATCC 25922) ([6]; ATCC 25922, pH 7.4): >100 µM
MIC ([7]; ATCC 10231, pH 7.4): >100 µM
Minimal Inhibitory Concentration, Aspergillus fumigatus (ATCC 26430) ([8]; ATCC 26430, pH 7.4): >100 µM
Minimal Inhibitory Concentration, B. subtilis (ATCC 6051) (B. subtilis ATCC 6051; ATCC 6051, pH 7.4): 60 µM
Minimal Inhibitory Concentration, Cryptococcus neoformans (ATCC MYA-422) ([9]; ATCC MYA-422, pH 7.4): 50 µM

CCCCCCCCCCCCCCCC(=O)NCC(=O)N[C@H](C(=O)NCC(=O)N[C@@H](CCCCN)C(=O)N[C@@H](Cc1ccccc1)C(=O)N[C@H](CC(C)C)C(=O)N[C@@H](Cc1c[nH]cn1)C(=O)N[C@@H](CO)C(=O)N[C@@H](C)C(=O)N[C@H](CCCCN)C(=O)N[C@@H](CCCCN)C(=O)N[C@@H](Cc1c[nH]c2ccccc12)C(=O)NCC(=O)N[C@@H](CCCCN)C(=O)N[C@@H](C)C(=O)N[C@H](Cc1ccccc1)C(=O)N[C@H](C(=O)NCC(=O)N[C@H](CCC(=O)O)C(=O)N[C@H](C(=O)N[C@@H](CCSC)C(=O)N[C@@H](CC(N)=O)C(=O)N[C@@H](CO)C(N)=O)[C@@H](C)CC)C(C)C)[C@@H](C)CC [[D]4magainin-PA] (Palmitoyl-GIGKF[dL]HSA[dK]KWGKA[dF]VG[dE]IMNS-NH2)
Minimal Inhibitory Concentration, P. aeruginosa ATCC 27853 ([3]; ATCC 27853): >50 µM
Minimal Inhibitory Concentration, S. aureus ATCC 6538P ([4]; ATCC 6538): >50 µM
Minimal Inhibitory Concentration, E. coli (ATCC 25922) ([6]; ATCC 25922): >50 µM
MIC ([7]; ATCC 10231): >50 µM
% of Hemolytic activity at maximal MIC [10]: 8%
Minimal Inhibitory Concentration, Aspergillus fumigatus (ATCC 26430) ([8]; ATCC 26430): >50 µM
Minimal Inhibitory Concentration, B. subtilis (ATCC 6051) (B. subtilis ATCC 6051; ATCC 6051): 50 µM
MIC [9]: 6.25 µM (≈ 17.1 µg/mL)

CCCCCCCCCCC(=O)NCC(=O)N[C@H](C(=O)NCC(=O)N[C@@H](CCCCN)C(=O)N[C@@H](Cc1ccccc1)C(=O)N[C@H](CC(C)C)C(=O)N[C@@H](Cc1c[nH]cn1)C(=O)N[C@@H](CO)C(=O)N[C@@H](C)C(=O)N[C@H](CCCCN)C(=O)N[C@@H](CCCCN)C(=O)N[C@@H](Cc1c[nH]c2ccccc12)C(=O)NCC(=O)N[C@@H](CCCCN)C(=O)N[C@@H](C)C(=O)N[C@H](Cc1ccccc1)C(=O)N[C@H](C(=O)NCC(=O)N[C@H](CCC(=O)O)C(=O)N[C@H](C(=O)N[C@@H](CCSC)C(=O)N[C@@H](CC(N)=O)C(=O)N[C@@H](CO)C(N)=O)[C@@H](C)CC)C(C)C)[C@@H](C)CC [[D]4magainin-UA] (Undecanoyl-GIGKF[dL]HSA[dK]KWGKA[dF]VG[dE]IMNS-NH2)
Minimal Inhibitory Concentration, P. aeruginosa ATCC 27853 ([3]; ATCC 27853): 50 µM
Minimal Inhibitory Concentration, S. aureus ATCC 6538P ([4]; ATCC 6538): 50 µM
Minimal Inhibitory Concentration, E. coli (ATCC 25922) ([6]; ATCC 25922): >50 µM
MIC ([7]; ATCC 10231): >50 µM
% of Hemolytic activity at maximal MIC [10]: 2%
Minimal Inhibitory Concentration, Aspergillus fumigatus (ATCC 26430) ([8]; ATCC 26430): >50 µM
Minimal Inhibitory Concentration, B. subtilis (ATCC 6051) (B. subtilis ATCC 6051; ATCC 6051): 6.25 µM
MIC [9]: 6.25 µM (≈ 16.7 µg/mL)

CCCCCCCCCCCCCCCC(=O)N[C@@H](CCCCN)C(=O)N[C@@H](C)C(=O)N[C@@H](C)C(=O)N[C@@H](C)C(=O)N[C@@H](CCCCN)C(=O)N[C@@H](C)C(=O)N[C@@H](C)C(=O)N[C@@H](C)C(=O)N[C@@H](CCCCN)C(=O)N[C@@H](C)C(=O)N[C@@H](C)C(=O)N[C@@H](CCCCN)C(N)=O [lipopeptide 6, (CH3—(CH2)14—CO—)-Lys-Ala-Ala-Ala-Lys-Ala-Ala-Ala-Lys-Ala-Ala-Lys-NH2] (Palmitoyl-KAAAKAAAKAAK-NH2)
Minimal Inhibitory Concentration, P. Aeruginosa ([3]; Table 4, pH 7.4): 25 µM
Minimal Inhibitory Concentration, E. faecalis [11]: 50 µM
Minimal Inhibitory Concentration, E. cloacae [12]: 100 µM
Minimal Inhibitory Concentration, S. aureus ([4]; Table 4, pH 7.4): 50 µM
Minimal Inhibitory Concentration, A. Baumaannii ([5]; Table 4, pH 7.4): 25 µM
Minimal Inhibitory Concentration, E. coli ([6]; Table 4, pH 7.4): 50 µM
Minimal Inhibitory Concentration, C. albicans ATCC 10231 ([7]; Table 10, pH 7.4): 3.125 µM
Minimal Inhibitory Concentration, C. neoformans ATCC 66031 [13]: 1.56 µM
hemolytic activity ([10]; at concentrations lower than 12 μM, human red blood cells (FIGS. 1-5)): do not exhibit significant hemolytic activity
Minimal Inhibitory Concentration, A. fumigatus ATCC 26430 ([8]; Table 10, pH 7.4): 12.5 µM
